Measurements taken from patent US7601751B2, “Indole acetic acid acyl guanidines as β-secretase inhibitors” (Bristol-Myers Squibb Company, priority 2005, dated 2009).

Molecular target: T1, BACE1 enzyme (Homo sapiens, UniProt P56817)
T1 construct: The HEK293-9B.A1 cell line, which overexpresses the BACE1 enzyme, was derived from HEK293 cells; endogenous in cells; washed membrane pellet / cell homogenate
Test: Radioligand displacement assay with a radiolabeled BACE inhibitor on HEK293-9B.A1 cell homogenate
Assay type: binding
Details: HEK293-9B.A1 cell homogenate overexpressing BACE1, 1 nM radioligand, pH 5.0, 1.5 hr at 25° C., read-out: Activity Rating (activity based on IC50 values)
Protocol: Radioligand displacement assays with a radiolabeled BACE inhibitor (WO 2004 013098, compound 3, where the methoxy group is substituted for C(^3H)3) were carried out using standard methods (Keen, M. (1999) in Receptor Binding Techniques (Walker, J. M. ed) p. 106 Humana Press, Totowa, N.J.). The HEK293-9B.A1 cell line, which overexpresses the BACE1 enzyme, was derived from HEK293 cells (Simmons, N. L. (1990) A cultured human renal epithelioid cell line responsive to vasoactive intestinal peptide. Exp. Physiol. 75:309-19.) by RAGE™ (Harrington, J. J. et al. (2001) Creation of genome-wide protein expression libraries using random activation of gene expression. Nat. Biotechnol. 19:440-5; U.S. Pat. No. 6,410,266 and 6,361,972). T225 flask cultures of HEK293-9B.A1 were grown to 80% confluency in DMEM supplemented with 2 mM L-glutamine, 10 μg/ml penecillin, 10 μg/ml streptomycin, 3 μg/ml puromycin, 100 nM methotrexate, and 10% fetal bovine serun (Invitrogen, Carlsbad, Calif.), harvested, and resuspended at 2×10^8 cells per 10 ml of lysis buffer consisting of 50 mM HEPES pH 7.0 containing a protease inhibitor cocktail of AEBSF 104 μM, aprotinin 80 nM, leupeptin 2 μM, bestatin 4 μM, pepstatin A 1.5 μM, and E-64 1.4 μM (0.1% of protease inhibitor cocktail P8340, Sigma-Aldrich, St. Louis, Mo.) at 4° C. The resuspended cells were homogenized using a Polytron (Brinkman, Westbury, N.Y.) at setting 6 for 10 sec., then centrifuged at 48,000×g for 10 min. The resulting pellet was washed by repeating the resuspension, homogenization and centrifugation steps. The final pellet was resuspended in buffer at 4° C. to yield a total protein concentration of 5 mg/ml, then aliquots were frozen in liquid nitrogen for further storage at −70° C. Immediately before carrying out a binding assay, an aliquot of cell homogenate was thawed and diluted to a concentration of 100 μg/ml in assay buffer consisting of 50 mM HEPES pH 5.0 and 0.1% CHAPSO. Assays were initiated in polypropylene 96-well plates (Costar, Cambridge, Mass.) by the addition of 200 μl of cell homogenate to 50 μl of assay buffer containing 1 nM radioligand (WO 2004 013098, compound 3, where the methoxy group is substituted for C(^3H)3: 80 Ci/mMol) and various concentrations of unlabelled compounds, and incubated for 1.5 hr. at 25° C. Separation of bound from free radioligand was by filtration on GFF glass fiber filters (Innotech Biosystems International, Lansing, Mich.) using an Innotech cell harvester. Filters were washed three times with 0.3 ml of phosphate buffered saline pH 7.0 at 4° C. and assessed for radioactivity using a Wallac 1450 Microbeta liquid scintillation counter (PerkinElmer, Boston, Mass.). Ki values of competing compounds were derived through Cheng-Prussoff correction of IC50 values calculated using XLfit (IDBS, Guildford, UK).

T1 sequence (P56817 46-501): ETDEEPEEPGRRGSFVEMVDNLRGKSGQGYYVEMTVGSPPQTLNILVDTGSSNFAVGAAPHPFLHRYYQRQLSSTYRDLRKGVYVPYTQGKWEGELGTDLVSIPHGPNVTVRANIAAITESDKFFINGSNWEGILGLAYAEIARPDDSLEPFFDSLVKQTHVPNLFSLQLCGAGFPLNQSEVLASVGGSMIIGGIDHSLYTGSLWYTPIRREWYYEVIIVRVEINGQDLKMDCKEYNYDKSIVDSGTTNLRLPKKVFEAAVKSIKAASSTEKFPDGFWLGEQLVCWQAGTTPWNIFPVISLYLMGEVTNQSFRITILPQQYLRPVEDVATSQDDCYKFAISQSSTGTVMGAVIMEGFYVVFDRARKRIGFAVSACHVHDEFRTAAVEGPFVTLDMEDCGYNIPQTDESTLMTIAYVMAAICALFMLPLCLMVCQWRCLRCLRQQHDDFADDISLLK

Cn1cc(CC(=O)/N=C(\N)NCc2cc(Cl)c(N)c(Cl)c2)c2ccccc21 [Example 5, N-((4-amino-3,5-dichlorobenzylamino)(amino)methylene)-2-(1-methyl-1H-indol-3-yl)acetamide] and N/C(=N\C(=O)Cc1cn(Cc2ccc(F)cc2)c2ccccc12)NCc1cc(Cl)c(N)c(Cl)c1 [Example 6, N-((4-amino-3,5-dichlorobenzylamino)(amino)methylene)-2-(1-(4-fluorobenzyl)-1H-indol-3-yl)acetamide] cannot be ordered by IC50: > 1 µM for the first, > 1 µM for the second.

First: CC(=O)Nc1c(Cl)cc(CN/C(N)=N/C(=O)Cc2c[nH]c3ccc(O)cc23)cc1Cl [Example 14, N-(2,6-Dichloro-4-{N′-[2-(5-hydroxy-1H-indol-3-yl)-acetyl]-guanidinomethyl}-phenyl)-acetamide]
Second: CC(=O)Nc1c(Cl)cc(CN/C(N)=N/C(=O)Cc2c[nH]c3ccc(Br)cc23)cc1Cl [Example 20, N-(4-{N′-[2-(5-Bromo-1H-indol-3-yl)-acetyl]-guanidinomethyl}-2,6-dichloro-phenyl)-acetamide]
The IC50 of the first is higher: 0.1 to 1 µM for the first, < 0.1 µM for the second.

First: CC(=O)Nc1c(Cl)cc(CN/C(N)=N/C(=O)Cc2c[nH]c3cc(OCc4ccccc4)ccc23)cc1Cl [Example 15, N-(4-{N′-[2-(6-Benzyloxy-1H-indol-3-yl)-acetyl]-guanidinomethyl}-2,6-dichloro-phenyl)-acetamide]
Second: CC(=O)Nc1c(Cl)cc(CN/C(N)=N/C(=O)Cc2c[nH]c3ccc(OCc4ccccc4)cc23)cc1Cl [Example 13, N-(4-{N′-[2-(5-Benzyloxy-1H-indol-3-yl)-acetyl]-guanidinomethyl}-2,6-dichloro-phenyl)-acetamide]
The IC50 of the first is lower: 0.1 to 1 µM for the first, > 1 µM for the second. The first is the more potent here.

COc1ccc2[nH]cc(CC(=O)/N=C(\N)NCc3cc(Cl)c(NC(C)=O)c(Cl)c3)c2c1 [Example 2, N-(2,6-Dichloro-4-{N′-[2-(5-methoxy-1H-indol-3-yl)-acetyl]-guanidinomethyl}-phenyl)-acetamide] and COc1ccc2[nH]cc(CC(=O)/N=C(\N)NCc3cc(C)c(NC(C)=O)c(Cl)c3)c2c1 [Example 9, N-(2-Chloro-4-{N′-[2-(5-methoxy-1H-indol-3-yl)-acetyl]-guanidinomethyl}-6-methyl-phenyl)-acetamide] fall in the same range of IC50: 0.1 to 1 µM for the first, 0.1 to 1 µM for the second.

CC(=O)Nc1c(Cl)cc(CN/C(N)=N/C(=O)Cc2c(C)[nH]c3ccc(F)cc23)cc1Cl [Example 21] and COc1ccc2[nH]c(C)c(CC(=O)/N=C(\N)NCc3cc(Cl)c(NC(C)=O)c(Cl)c3)c2c1 [Example 10, N-(2,6-Dichloro-4-{N′-[2-(5-methoxy-2-methyl-1H-indol-3-yl)-acetyl]-guanidinomethyl}-phenyl)-acetamide] fall in the same range of IC50: 0.1 to 1 µM for the first, 0.1 to 1 µM for the second.

CN1CCN(c2ccc(CN/C(N)=N/C(=O)Cc3c[nH]c4ccc(Br)cc34)cc2)CC1 [Example 18, N-[2-(5-Bromo-1H-indol-3-yl)-acetyl]-N′-[4-(4-methyl-piperazin-1-yl)-benzyl]-guanidine] and CN1CCN(c2ccc(CN/C(N)=N/C(=O)Cc3c[nH]c4ccc(Br)cc34)cc2Cl)CC1 [Example 19, N-[2-(5-Bromo-1H-indol-3-yl)-acetyl]-N′-[3-chloro-4-(4-methyl-piperazin-1-yl)-benzyl]-guanidine] cannot be ordered by IC50: > 1 µM for the first, > 1 µM for the second.

COc1ccc2[nH]cc(CC(=O)/N=C(\N)NCc3cc(Cl)cc(Cl)c3)c2c1 [Example 3, N-(3,5-Dichloro-benzyl)-N′-[2-(5-methoxy-1H-indol-3-yl)-acetyl]-guanidine] and N/C(=N\C(=O)Cc1c[nH]c2ccc(F)cc12)NCc1cc(Cl)cc(Cl)c1 [Example 4, N-(3,5-Dichloro-benzyl)-N′-[2-(5-fluoro-1H-indol-3-yl)-acetyl]-guanidine] cannot be ordered by IC50: > 1 µM for the first, > 1 µM for the second.

N/C(=N\C(=O)Cc1c[nH]c2ccc(Br)cc12)NCc1cc(Cl)c(N)c(Cl)c1 [Example 17, N-(4-Amino-3,5-dichloro-benzyl)-N′-[2-(5-bromo-1H-indol-3-yl)-acetyl]-guanidine] and COc1ccc2[nH]cc(CC(=O)/N=C(\N)NCc3cc(Cl)c(N)c(Cl)c3)c2c1 [Example 7, N-((4-amino-3,5-dichlorobenzylamino)(amino)methylene)-2-(5-methoxy-1H-indol-3-yl)acetamide] cannot be ordered by IC50: > 1 µM for the first, > 1 µM for the second.

CC(=O)Nc1c(Cl)cc(CN/C(N)=N/C(=O)Cc2c[nH]c3cc(Br)ccc23)cc1Cl [Example 1, N-(4-{N′-[2-(6-Bromo-1H-indol-3-yl)-acetyl]-guanidinomethyl}-2,6-dichloro-phenyl)-acetamide] and CC(=O)Nc1c(Cl)cc(CN/C(N)=N/C(=O)Cc2c[nH]c3cc(F)ccc23)cc1Cl [Example 16, N-(2,6-Dichloro-4-{N′-[2-(6-fluoro-1H-indol-3-yl)-acetyl]-guanidinomethyl}-phenyl)-acetamide] fall in the same range of IC50: 0.1 to 1 µM for the first, 0.1 to 1 µM for the second.

First: CC(C(=O)/N=C(\N)NCc1cc(Cl)c(N)c(Cl)c1)c1c[nH]c2ccccc12 (stereo not shown) [Example 8, N-((4-amino-3,5-dichlorobenzylamino)(amino)methylene)-2-(1H-indol-3-yl)propanamide]
Second: CC(=O)Nc1c(Cl)cc(CN/C(N)=N/C(=O)Cc2c(C)[nH]c3ccccc23)cc1Cl [Example 11, N-(2,6-Dichloro-4-{N′-[2-(2-methyl-1H-indol-3-yl)-acetyl]-guanidinomethyl}-phenyl)-acetamide]
The IC50 of the first is higher: > 1 µM for the first, 0.1 to 1 µM for the second. The second is the more potent here.

Compared with CC(=O)Nc1c(Cl)cc(CN/C(N)=N/C(=O)Cc2c[nH]c3ccc(C#N)cc23)cc1Cl [Example 23, N-(4-{N′-[2-(5-Cyano-1H-indol-3-yl)-acetyl]-guanidinomethyl}-2,6-dichloro-phenyl)-acetamide], CC(=O)Nc1c(Cl)cc(CN/C(N)=N/C(=O)Cc2c[nH]c3ccc(F)cc23)cc1Cl [Example 12, N-(2,6-Dichloro-4-{N′-[2-(5-fluoro-1H-indol-3-yl)-acetyl]-guanidinomethyl}-phenyl)-acetamide] is higher in IC50: < 0.1 µM for the first, 0.1 to 1 µM for the second. The first is the more potent here.

CC(=O)Nc1c(Cl)cc(CN/C(N)=N/C(=O)Cc2c(C#N)[nH]c3ccc(Br)cc23)cc1Cl [Example 25, N-(4-{N′-[2-(5-Bromo-2-cyano-1H-indol-3-yl)-acetyl]-guanidinomethyl}-2,6-dichloro-phenyl)-acetamide] and CC(=O)Nc1c(Cl)cc(CN/C(N)=N/C(=O)Cc2c(C(=O)NC(C)(C)C)[nH]c3ccc(Br)cc23)cc1Cl [Example 24, 3-{2-[N′-(4-Acetylamino-3,5-dichloro-benzyl)-guanidino]-2-oxo-ethyl}-5-bromo-1H-indole-2-carboxylic acid tert-butylamide] cannot be ordered by IC50: < 0.1 µM for the first, < 0.1 µM for the second.

CC(=O)Nc1c(Cl)cc(CN/C(N)=N/C(=O)Cc2c(C)[nH]c3c(F)cccc23)cc1Cl [Example 22, N-(2,6-Dichloro-4-{N′-[2-(7-fluoro-2-methyl-1H-indol-3-yl)-acetyl]-guanidinomethyl}-phenyl)-acetamide] showed an IC50 of 0.1 to 1 µM.
